Holding throughout (format): biochemical
Experiment [1] has as its target T1, Human leukocyte cathepsin G (Homo sapiens, UniProt P08311).
T1 sequence (P08311 21-255): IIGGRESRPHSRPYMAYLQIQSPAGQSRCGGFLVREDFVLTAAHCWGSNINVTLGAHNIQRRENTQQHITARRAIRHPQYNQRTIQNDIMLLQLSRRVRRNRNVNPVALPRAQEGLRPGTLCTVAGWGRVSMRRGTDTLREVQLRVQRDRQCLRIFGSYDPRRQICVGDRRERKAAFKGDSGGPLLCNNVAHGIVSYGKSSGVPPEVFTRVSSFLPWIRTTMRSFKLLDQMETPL
As to the kind of experiment: Cathepsin G inhibition, Suc-Val-Pro-Phe-NA hydrolysis. Conditions: Table 4, Z-Leu--AA--CONH-R. As for the experimental part: (§1) Peptide α-ketoamides were assayed as reversible enzyme inhibitors. Various concentrations of inhibitors in Me2 SO were added to the assay mixture which contained buffer and substrate. The reaction was started by the addition of the enzyme and the hydrolysis rates were followed spectrophotometrically or fluorimetrically.
(§2) A 0.1M Hepes, 0.5M NaCl, pH 7.5 buffer was utilized for human leukocyte elastase (HLE), porcine pancreatic elastase (PPE), chymotrypsin and cathepsin G. A 0.1 Hepes, 0.01 M CaCl2, pH 7.5 buffer was utilized for trypsin, plasmin, and coagulation enzymes. A 50 mM Tris.HCl, 2 mM EDTA, 5 mM cysteine, pH 7.5 was used as a buffer for papain. A 88 mM KH2 PO4, 12 mM Na2 HPO4, 1.33 mM EDTA, 2.7 mM cysteine, pH 6.0 solution was used as a buffer for cathepsin B. A 20 mM Hepes, 10 mM CaCl2, 10 mM mercatoethanol, pH 7.2 buffer was utilized for calpain I and calpain II.
HLE and PPE were assayed with MeO-Suc-Ala-Ala-Pro-Val-NA and Suc-Ala-Ala-Ala-NA, respectively Nakajima et al., J. Biol. Chem. 254, 4027-4032 (1979); incorporated herein by reference!. Human leukocyte cathepsin G and chymotrypsin Aα were assayed with Suc-Val-Pro-Phe-NA Tanaka et al., Biochemistry 24, 2040-2047 (1985); incorporated herein by reference!. The hydrolysis of peptide 4-nitroanilides was measured at 410 nm ε410 =8800 M^-1 cm^-1; Erlanger et al., Arch. Biochem. Biophys. 95, pp 271-278 (1961); incorporated herein by reference!. Trypsin, thrombin, human plasma kallikrein, porcine pancreatic kallikrein, human factor XIa, and human plasmin were assayed with Z-Arg-SBzl or Z-Gly-Arg-SBu-i McRae et al., Biochemistry 20, 7196-7206 (1981); incorporated herein by reference!. All peptide thioester hydrolysis rates were measured with assay mixtures containing 4,4'-dithiodipyridine ε324 =19800 M^-1 cm^-1; Grasetti & Murray, Arch. Biochem. Biophys. 119, 41-49 (1967); incorporated herein by reference!.

The target of experiment [2] is T2, human leukocyte elastase (HLE) (Homo sapiens, UniProt P08246).
T2 sequence (P08246 30-267): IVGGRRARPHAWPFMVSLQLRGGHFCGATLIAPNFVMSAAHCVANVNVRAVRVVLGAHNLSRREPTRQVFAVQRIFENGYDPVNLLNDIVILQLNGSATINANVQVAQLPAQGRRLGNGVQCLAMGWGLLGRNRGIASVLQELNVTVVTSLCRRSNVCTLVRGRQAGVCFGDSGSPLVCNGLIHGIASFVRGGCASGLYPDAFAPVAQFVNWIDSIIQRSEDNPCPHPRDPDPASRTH
As to the kind of experiment: HLE inhibition, MeO-Suc-Ala-Ala-Pro-Val-NA hydrolysis. The note with it: for IC50: Table 4, Z-Leu--AA--CONH-R; for Ki: Table 4, in brackets under the IC50. A digest of the protocol: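 Reversible inhibition tested with inhibitor (in Me2SO) and substrate in 0.1 M Hepes, 0.5 M NaCl, pH 7.5; reaction started by enzyme. Cathepsin G used Suc-Val-Pro-Phe-NA, HLE used MeO-Suc-Ala-Ala-Pro-Val-NA; 4-nitroanilide release followed at 410 nm.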

Experiment [3] has as its target T3, Calpain I from human erythrocytes (Homo sapiens, UniProt P07384).
T3 construct: Calpain I was purified from human erythrocytes; from tissue; host or cells: human erythrocytes
T3 sequence (P07384 1-714): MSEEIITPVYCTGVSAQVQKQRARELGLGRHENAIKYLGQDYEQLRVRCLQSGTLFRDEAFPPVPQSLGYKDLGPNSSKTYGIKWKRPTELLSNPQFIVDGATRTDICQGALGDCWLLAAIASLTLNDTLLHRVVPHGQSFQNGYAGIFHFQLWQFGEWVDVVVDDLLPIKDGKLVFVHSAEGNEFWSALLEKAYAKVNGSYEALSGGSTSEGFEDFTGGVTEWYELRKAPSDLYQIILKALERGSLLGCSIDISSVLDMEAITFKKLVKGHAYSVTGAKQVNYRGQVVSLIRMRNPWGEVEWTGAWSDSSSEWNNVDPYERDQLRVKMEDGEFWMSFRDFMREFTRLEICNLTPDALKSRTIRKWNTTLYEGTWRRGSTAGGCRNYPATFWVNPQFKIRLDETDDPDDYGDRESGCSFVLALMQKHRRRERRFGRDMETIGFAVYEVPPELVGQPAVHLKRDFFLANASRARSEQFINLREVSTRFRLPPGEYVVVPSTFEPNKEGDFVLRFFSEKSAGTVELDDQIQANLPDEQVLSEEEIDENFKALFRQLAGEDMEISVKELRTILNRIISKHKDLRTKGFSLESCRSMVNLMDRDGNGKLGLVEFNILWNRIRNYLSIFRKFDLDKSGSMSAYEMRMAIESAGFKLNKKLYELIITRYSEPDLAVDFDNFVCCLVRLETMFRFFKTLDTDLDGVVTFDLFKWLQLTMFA
T3 sequence (P04632 1-268 partner): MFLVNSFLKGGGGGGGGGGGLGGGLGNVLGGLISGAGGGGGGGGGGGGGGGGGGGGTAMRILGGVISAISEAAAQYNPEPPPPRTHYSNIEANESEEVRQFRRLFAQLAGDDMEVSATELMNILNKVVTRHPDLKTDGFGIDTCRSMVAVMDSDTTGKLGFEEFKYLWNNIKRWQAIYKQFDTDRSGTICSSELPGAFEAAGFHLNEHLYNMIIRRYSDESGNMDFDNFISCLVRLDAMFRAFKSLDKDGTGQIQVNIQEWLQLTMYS
The experiment in a line: Calpain I inhibition, Suc-Leu-Tyr-AMC hydrolysis (KI). Conditions: read-out: KI Cal I. A digest of the protocol: (§3)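 Reversible KI values came from Lineweaver-Burk or Dixon plots of rates at varied substrate and inhibitor (in Me2SO) levels, with reactions started by enzyme. Calpains (human erythrocyte I, rabbit muscle II) hydrolysed Suc-Leu-Tyr-AMC in 25 mM Tris pH 8.0, 10 mM CaCl2 (ex 380/em 460 nm). Cathepsin B used Bz-Phe-Val-Arg-pNA (20 mM acetate pH 5.2, 0.5 mM DTT) or Z-Arg-Arg-AFC.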

In a further experiment the target is calpain II from rabbit. As to the kind of experiment: Calpain II inhibition, Suc-Leu-Tyr-AMC hydrolysis (KI). Conditions: Table 2, Z-Leu--AA--CONH--CH2 CH(OH)-R; read-out: KI Cal II. Put shortly:
as §3

A further experiment has as its target T4, cathepsin B (Homo sapiens, UniProt P07858).
T4 construct: purchased Sigma
The experiment in a line: Cathepsin B inhibition (KI). Conditions: Table 2, Z-Leu--AA--CONH--CH2 CH(OH)-R; read-out: KI Cat B. How it is done:
HEPES, heparin, and A23187 were obtained from Calbiochem. Suc-Leu-Tyr-AMC and chromogenic substrates were obtained from Sigma. Calpain I was purified from human erythrocytes according to the method of Kitahara (Kitahara et al., J. Biochem. 95, 1759-1766) omitting the Blue-Sepharose step. Calpain II from rabbit muscle and cathepsin B were purchased from Sigma. Papain was purchased from Calbiochem.
as §1
Calpain I from human erythrocytes and calpain II from rabbit were assayed using Suc-Leu-Tyr-AMC Sasaki et al., J. Biol. Chem. 259, 12489-12494 (1984); incorporated herein by reference!, and the AMC (7-amino-4-methylcoumarin) release was followed fluorimetrically (excitation at 380 nm, and emmision at 460 nm). Calpains were assayed in 25 mM Tris pH=8.0, 10 mM CaC12. Fluorescence was followed using a Gilson FL-1A fluorometer or a Perkin-Elmer 203 Fluorescence spectrometer. Cathepsin B was assayed in 20 mM sodium acetate pH=5.2, 0.5 mM dithiothreitol using Bz-Phe-Val-Arg-p-nitroanilide as substrate. Alternately, cathepsin B was assayed with Z-Arg-Arg-AFC Barrett and Kirschke, Methods Enzymol. 80, 535-561 (1981); incorporated herein by reference!, and the AFC (7-amino-4-trifluoromethylcoumarin) release was followed fluorimetrically (excitation at 400 nm and emmision at 505 nm). Papain was assayed in 100 mM KPO4, 1 mM EDTA, 2.5 mM cysteine pH=6.0 using Bz-Arg-AMC or Bz-Arg-NA Kanaoka et al., Chem. Pharm. Bull. 25, 3126-3128 (1977); incorporated herein by reference! as a substrate. The AMC (7-amino-4-methylcoumarin) release was followed fluorimetrically (excitation at 380 nm, and emmision at 460 nm). Enzymatic hydrolysis rates were measured at various substrate and inhibitor concentrations, and KI values were determined by either Lineweaver-Burk plots or Dixon plots.
as §2

Where [4] appears, read: Table 2, Z-Leu--AA--CONH--CH2 CH(OH)-R.

Like-named read-outs stand apart in the source and are kept apart here.

By IC50 is commonly meant the concentration that inhibits the measured activity by half. A higher IC50 goes with weaker potency in that assay. By Ki is commonly meant a measure of affinity in units of concentration, obtained from inhibition or displacement.

On to `CC[C@H](NC(=O)[C@H](CC(C)C)NC(=O)OCc1ccccc1)C(=O)C(=O)NCC(O)c1ccc(N(C)C)cc1` (stereo partly drawn) [Z-Leu-Abu-CONH--CH2 CH(OH)C6 H4 (4-N(CH3)2)], for which the values for the IC50 in experiment [1] and in experiment [2] were greater than 204 µM and 18 µM, respectively. For the same compound, the Ki in experiment [2] was found to be 19 µM; in experiment [3] (setting [4]), 0.33 µM.
As to `CCC(NC(=O)C(CC(C)C)NC(=O)OCc1ccccc1)C(=O)C(=O)NCC(O)c1cccc(C(F)(F)F)c1` (stereo not drawn) [Z-Leu-Abu-CONH-CH2 CH(OH)-C6 H4 (3-CF3), Z-Leu-Abu-CONH--CH2 CH(OH)C6 H4 (3-CF3)], the IC50 in experiment [1] is greater than 204 µM; in experiment [2] it was 11 µM. For the same compound, the Ki was determined as 9 µM in experiment [2] and 0.35 µM in experiment [3] (setting [4]).
Regarding `CC(C)CC(NC(=O)OCc1ccccc1)C(=O)NC(Cc1ccccc1)C(=O)C(=O)NCCCN1CCOCC1` (stereo not drawn) [Z-Leu-Phe-CONH-(CH2)3 -4-morpholinyl, Z-Leu-Phe-CONH--(CH2)3 -4-Morpholinyl], the results for the IC50 in experiment [1] and in experiment [2] were 136 µM and greater than 222 µM, respectively. Also, the Ki in experiment [3] (Table 1, Z-Leu--AA--CONHR) came to 0.22 µM.
For `CC(C)C[C@H](NC(=O)OCc1ccccc1)C(=O)N[C@@H](Cc1ccccc1)C(=O)C(=O)NCC(O)c1ccc(N(C)C)cc1` (stereo partly drawn) [Z-Leu-Phe-CONH--CH2 CH(OH)C6 H4 (4-N(CH3)2)], the IC50 in experiment [1] amounted to 58 µM; in experiment [2] it was 28 µM. Moreover, the Ki in experiment [3] (setting [4]) was 0.62 µM.
The matching figures for `CC(C)C[C@H](NC(=O)OCc1ccccc1)C(=O)N[C@@H](Cc1ccccc1)C(=O)C(=O)NCC(O)c1cccc(Oc2cccc(C(F)(F)F)c2)c1` (stereo partly drawn) [Z-Leu-Phe-CONH--CH2 CH(OH)C6 H4 -3-OC6 H4 (3-CF3)]: 80 µM, 70 µM and 0.18 µM.
As for `CC(C)C[C@H](NC(=O)OCc1ccccc1)C(=O)N[C@@H](Cc1ccccc1)C(=O)C(=O)NCC(O)c1ccccc1` (stereo partly drawn) [Z-Leu-Phe-CONH-CH2 CH(OH)-Ph, Z-Leu-Phe-CONH--CH2 CH(OH)Ph], the IC50 in experiment [1] came to 102 µM; in experiment [2], 44 µM. Further, the Ki on calpain II from rabbit came to 0.05 µM; in experiment [3] (setting [4]) it was 1.3 µM; on cathepsin B, 2.1 µM.

The values above are taken from US5514694A, “Peptidyl ketoamides” (Georgia Tech Research Corp, priority 1993, dated 1996).
